Experimental data from US10543159B2, “Hair papilla cell activator” (Ezaki Glico Co., Ltd., priority 2014, dated 2020).
Where a name gives a salt, the structure may show the parent alone.

Tests used:
[1] = system: FGF7 and VEGF; assay: Gene expression with POs-Ca (R) combined with general hair-restoration components (Example 8); type: cell-based, human; conditions: 0.25% POs-Ca (R) with 0.25% glycyrrhizinate dipotassium, 1% tocopherol acetate, 0.125% pantothenyl ethyl ether or 1% Swertia japonica; two wells
Experimental: (1) Glycyrrhizinate dipotassium (for biochemical use) from Wako Pure Chemical Industries, Ltd. was diluted to 20% (w/v) with water, and sterilized by being passed through a 0.20-μm filter (Minisart, surfactant-free cellulose acetate, Sartorius Stedim Biotech, US) with a 10-ml syringe (Terumo Corporation), and the resulting product was diluted with sterilized water, as required, and used.
(2) (±)-α-Tocopherol acetate (first grade) from Wako Pure Chemical Industries, Ltd., as tocopherol acetate, and DL-pantothenyl ethyl ether from Santa Cruz Biotechnology, as pantothenyl ethyl ether, were each diluted 5-fold to 20% (v/v) with ethanol, and diluted with sterilized water, as required, and used.
(3) A water-ethanol solution of Swertia japonica extract from Senken Co., Ltd., as a 100% (v/v) extract, was diluted with sterilized water, as required, and used.
(1) 500 μl of a special medium in which 2×10^4 cells/ml of follicle dermal papilla cells were suspended was dispensed into a type I collagen-coated 24-well cell culture plate (Corning), and cultured at a cell density of 5×10^3 cells/cm^2 at 37° C. for 96 hours, until the cells reached subconfluent. […]
(3) Two wells were used for culturing each of the DMEM solutions containing (a) to (i). The expression levels of FGF7 and VEGF were analyzed as in (3) to (8) of Example 3, and the average values of the two wells were compared.

[2] = system: Wnt5a; assay: Quantitative PCR gene expression in follicle dermal papilla cells: Wnt5a; type: cell-based, human; conditions: 37° C., 5 hours
Experimental: (§1) (1) 500 μl of a special medium in which 4×10^4 cells/ml of follicle dermal papilla cells were suspended was dispensed into a type I collagen-coated 24-well cell culture plate (Corning), and cultured at a cell density of 1.0×10^4 cells/cm^2 at 37° C. for 42 hours. […] Each of the solutions (a) to (c) was mixed with DMEM high glucose (Sigma, USA) at a ratio of 1:9.
(§2) (3) The medium was aspirated from each well obtained in (1), the well was washed by adding 1 ml of 1×PBS (137 mM NaCl, 8.1 mM Na2HPO4, 2.68 mM KCl, 1.47 mM KH2PO4 (pH 7.4); Wako Pure Chemical Industries, Ltd.), and aspirating the PBS, 500 μl of DMEM high glucose was added, and the cells were incubated in a CO2 incubator at 37° C. for 5 hours. […]
(4) The medium was removed from each well, and then mRNA was extracted using CellAmp Direct RNA Prep Kit for RT-PCR (Takara). The method was performed in accordance with the manual for the kit.
(5) 8 μl of the extracted mRNA solution (200 μl for each well) was used, and cDNA was obtained by the reverse transcription reaction at a scale of 40 μl, using PrimeScript RT Master Mix (Takara). The reaction conditions were as set forth in the manual for the kit.
(6) 0.5 μl of each of cDNA solutions diluted 2-fold with water, 1 μl of a solution containing 4 μM of each of primers 1 and 2 for each of the genes shown in Table 2, 5 μl of SYBR Premix Ex Taq II (Takara), and 3.5 μl of water were added, and quantitative PCR was performed on each of the genes. Using CFX96 Touch (BIO-RAD, USA), denaturation treatment at 95° C. for 30 seconds was performed, and then a two-step cycle at 95° C. for 5 seconds and at 62° C. for 20 seconds was performed for 65 cycles. Fluorescence intensity after each cycle was measured.
(§3) (7) Using PGK1 and GAPDH as reference genes, a comparative analysis of expression levels was performed with the analysis software (Bio-Rad CFX Manager 3.0) included in CFX96Touch. Relative expression levels were calculated under the default conditions of the software. […]

[3] = system: VEGF; assay: Quantitative PCR gene expression in follicle dermal papilla cells: VEGF; type: cell-based, human; conditions: Example 5: 0.25% POs-Ca (R), 50 μM adenosine or both; DMEM serum-free, 37° C., 5 hours; Dunnett p<0.05, n=8
[4] = system: FGF-7; assay: Quantitative PCR gene expression in follicle dermal papilla cells: FGF-7; type: cell-based, human; conditions: 37° C., 5 hours
Experimental: as §1, §2
(6) 0.5 μl of each of cDNA solutions diluted 2-fold with water, 1 μl of a solution containing 4 μM of each of primers 1 and 2 for each of the genes shown in Table 2, 5 μl of SYBR Premix Ex Taq II (Takara), and 3.5 μl of water were added, and quantitative PCR was performed on each of the genes. […] Fluorescence intensity after each cycle was measured.
as §3

[5] = system: human follicle dermal papilla cells; assay: Follicle dermal papilla cell proliferation, Cell Counting Kit-F cell count (Example 2); type: cell-based
Experimental: A strain (Lot. 3092504.12) sold by PromoCell (Germany) was used as human follicle dermal papilla cells. The cells were cultured in a CO2 incubator at 37° C., using a special medium for follicle dermal papilla cells (PromoCell), unless otherwise indicated. Cell subculturing was performed as follows: cells were seeded at 5000 to 10000 cells/cm^2 in an uncoated dish, and when the cells reached subconfluent, they were treated with trypsin-EDTA (0.03%) and detached, and then re-seeded. […] The medium was replaced about once every 3 days.
1. The procedures (1) and (3) to (5) in Example 1 were performed in the same manner as described above. Solutions of the compositions shown in the following table were prepared in a concentration series starting from a 10% (w/v) aqueous solution of POs-Ca (R), a 12.9% (w/v) aqueous solution of G1P-Ca, a 1.84% (w/v) aqueous solution of CaCl2.2H2O, or a 10% (w/v) aqueous solution of POs-Na.
2. In place of the conditions ((6), (7) and (8)) in Example 1, Cell Counting Kit-F (Dojindo Molecular Technologies, Inc.) was added to each well in accordance with the manual, and the number of cells was counted.

[6] = system: FGF-7; assay: Expression rate of FGF-7 among acidic saccharide salts, quantitative PCR (Example 6); type: cell-based, human; conditions: Example 6: solutions (b)-(h) of b288 mixed 1:9 with DMEM, GAPDH reference, mean of 4 PCR assays
Experimental: (§4) (1) 500 μl of a special medium in which 2×10^4 cells/ml of follicle dermal papilla cells were suspended was dispensed into a type I collagen-coated 24-well cell culture plate (Corning), and cultured at a cell density of 5×10^3 cells/cm^2 at 37° C. for 72 hours. […] Oji Cornstarch Co., Ltd.), (f) a 2.5% (w/v) aqueous solution of a phosphorylated oligosaccharide magnesium salt (POs-Mg; […] (3) Each of the solutions (a) to (c) was mixed with DMEM high glucose (Sigma, USA) at a ratio of 1:9. (4) Following the procedures (4) to (6) in Example 2, mRNA was extracted from the cells, cDNA was prepared, and then the expression levels of the VEGF, FGF-7, and GAPDH genes were quantified by quantitative PCR. (7) Using GAPDH as a reference gene, a comparative analysis of expression levels was performed with the analysis software (Bio-Rad CFX Manager 3.0) included in CFX96Touch. The expression levels were calculated under the default conditions of the software.

[7] = system: VEGF; assay: Expression rate of VEGF among acidic saccharide salts, quantitative PCR (Example 6); type: cell-based, human; conditions: Example 6: solutions (b)-(h) of b288 mixed 1:9 with DMEM, GAPDH reference, mean of 4 PCR assays
Experimental: as §4

[8] = Example 5: 0.25% POs-Ca (R), 50 μM adenosine or both, DMEM serum-free, Dunnett p<0.05, n=8
[9] = Example 7: 0.25% POs-Mg or MgCl2.6H2O with equivalent magnesium, DMEM, Dunnett p<0.05

## CC1(C)[C@@H](O[C@H]2O[C@H](C(=O)O)[C@@H](O)[C@H](O)[C@H]2O[C@@H]2O[C@H](C(=O)O)[C@@H](O)[C@H](O)[C@H]2O)CC[C@]2(C)[C@H]3C(=O)C=C4[C@@H]5C[C@@](C)(C(=O)O)CC[C@]5(C)CC[C@@]4(C)[C@]3(C)CC[C@@H]12 [glycyrrhizinate dipotassium, Glycyrrhizinate dipotassium]
[1]
  synergistic effect with POs-Ca (R) on expression of FGF7 and VEGF: None

## Nc1ncnc2c1ncn2[C@@H]1O[C@H](CO)[C@@H](O)[C@H]1O [adenosine]
[2]; [8]
  expression of WNTSA (Wnt5a) compared to without treatment: significant difference
[3]
  expression of VEGF compared to without treatment: significant difference
[4]; [8]
  expression of FGF7 compared to without treatment: significant difference

## magnesium chloride hexahydrate [general magnesium]
[2]; [9]
  expression of WNTSA: not observed
[4]; [9]
  expression of FGF7: not observed

## O=P(O)(O)OC1O[C@H](CO)[C@@H](O)[C@H](O)[C@H]1O (some centres unmarked) [G1P-Ca, glucose-1-phosphate calcium salt]
[5]; FIG. 1B-1D legends, Dunnett p<0.05
  working concentrations having the effect of proliferating follicle dermal papilla cells: over 0.3%
[5]; concentration series of Table 1A, 3 days
  number of cells compared to that without addition: increased at all concentrations
[6]; calcium salt
  FGF7, relative values of the expression levels based on the control as 1: induced an increase
[6]; listed as G1P—Ca, calcium salt
  FGF7, relative values of the expression levels based on the control as 1: 1.10
[7]; calcium salt
  VEGF, relative values of the expression levels based on the control as 1: induced an increase
[7]; listed as G1P—Ca, calcium salt
  VEGF, relative values of the expression levels based on the control as 1: 1.46

## CC(=O)Oc1c(C)c(C)c2c(c1C)CCC(C)(CCC[C@H](C)CCC[C@H](C)CCCC(C)C)O2 (mixture of isomers) [tocopherol acetate, (±)-α-Tocopherol acetate]
[1]
  synergistic effect with POs-Ca (R) on expression of FGF7 and VEGF: None

## O=C([O-])[C@H](O)[C@@H](O)[C@H](O[C@@H]1O[C@H](CO)[C@H](O)[C@H](O)[C@H]1O)[C@H](O)CO.O=C([O-])[C@H](O)[C@@H](O)[C@H](O[C@@H]1O[C@H](CO)[C@H](O)[C@H](O)[C@H]1O)[C@H](O)CO.[Ca+2] [Lactobio-Ca, calcium lactobionate]
[6]
  FGF7, relative values of the expression levels based on the control as 1: 1.35
[6]; listed as calcium lactobionate
  FGF7, relative values of the expression levels based on the control as 1: induced an increase
[7]
  VEGF, relative values of the expression levels based on the control as 1: 1.48
[7]; listed as calcium lactobionate
  VEGF, relative values of the expression levels based on the control as 1: induced an increase
